# In patent US20180213790A1, “COMPOSITIONS AND USES THEREOF FOR CONTROLLING ECTOPARASITES IN NON-HUMAN MAMMALS” (priority 2015, published 2018):
# Read-outs that look alike come from different tables or passages of the source.
# What was measured:
# Ctenocephalides felis = details: for EC50 (ppm) Dinotefuran: amount of dinotefuran; for EC50 (ppm) Total amount of actives (ppm): total of dinotefuran and fipronil
# Method: Insecticidal activity of dinotefuran, fipronil and dinotefuran/fipronil combinations at different ratios was evaluated using an in vitro coated-vial bioassay. Serial dilutions of test compounds, individually or in combination, were conducted with an acetone/triton solution+0.5% DMSO from a dinotefuran starting dose at 100 ppm and from a fipronil starting dose at 50 ppm. Vials were treated with dinotefuran, fipronil, dinotefuran/fipronil (tested at 6 ratios). Vials were capped and allowed to dry for at least 4 hours before the addition of 10 newly emerged (0-7 days old) unfed adult fleas (Ctenocephalides felis). Flea susceptibility was assessed at 6, 24 and 48 hours post-exposure by evaluating mortality. The EC50 and EC90 values were calculated based on Median-Effect Principle (Chu, 2006. Theoretical Basis, Experimental design, and Computerized Simulation of Synergism and Antagonism in drug Combination studies. Pharmacological reviews, 58(3):621-681) using COMPUSYN (version 1.0). EC50 and EC90 are defined as the amount of drugs, which causes respectively a 50% and 90% flea mortality. Combination indexes (CI) at EC50 and EC90 were calculated to characterize the interaction of each combination: synergism (CI<1), antagonism (CI>1) and additive effect (CI=1) and a combination index (CI) values were calculated at 48 hours of exposure to assess the potential for synergistic activity (Chou, Pharmacol. Rev. 2006, 58, 621-681; Chou, Drug combination studies and their synergy quantification using the Chou-Talalay method, Cancer. Res., 2010, 70: 440-446).
# Rhipicephalus sanguineus = assay: in vitro coated-vial bioassay, activity against ticks; details: for EC50 (ppm) Total amount of actives (ppm): total of dinotefuran and fipronil; for mortality at 0.206 ppm / mortality at 0.617 ppm / mortality at 1.852 ppm / mortality at 5.556 ppm / mortality at 16.667 ppm / mortality at 50 ppm: Rhipicephalus sanguineus; for mortality at 0.206 ppm: D 0.000 ppm + F 0.206 ppm; for mortality at 0.617 ppm: D 0.000 ppm + F 0.617 ppm; for mortality at 1.852 ppm: D 0.000 ppm + F 1.852 ppm; for mortality at 5.556 ppm: D 0.000 ppm + F 5.556 ppm; for mortality at 16.667 ppm: D 0.000 ppm + F 16.667 ppm; for mortality at 50 ppm: D 0.000 ppm + F 50.000 ppm
# Method: Tick susceptibility was assessed at 12, 24 and 48 hours post-exposure by evaluating mortality.
# [1] = 12 H, read-out: Mortality (%) 12 H
# [2] = 24 H, read-out: Mortality (%) 24 H
# [3] = 48 H, read-out: Mortality (%) 48 H
compound,measurement,setting,value
"CN/C(=N\[N+](=O)[O-])NCC1CCOC1 (stereo not drawn) [D:F = 1:0, 2-methyl-l-nitro-3-[(tetrahydro-3-furanyl)methyl] guanidine]",activity against fleas (in words),Ctenocephalides felis,more potent than fipronil
same,Mortality (%) 6 H,Ctenocephalides felis; D 0.412 ppm + F 0.000 ppm,0%
same,Mortality (%) 24 H,Ctenocephalides felis; D 0.412 ppm + F 0.000 ppm,10%
same,Mortality (%) 48 H,Ctenocephalides felis; D 0.412 ppm + F 0.000 ppm,0%
same,Mortality (%) 6 H,Ctenocephalides felis; D 1.235 ppm + F 0.000 ppm,0%
same,Mortality (%) 24 H,Ctenocephalides felis; D 1.235 ppm + F 0.000 ppm,10%
same,Mortality (%) 48 H,Ctenocephalides felis; D 1.235 ppm + F 0.000 ppm,20%
same,Mortality (%) 6 H,Ctenocephalides felis; D 3.704 ppm + F 0.000 ppm,0%
same,Mortality (%) 24 H,Ctenocephalides felis; D 3.704 ppm + F 0.000 ppm,20%
same,Mortality (%) 48 H,Ctenocephalides felis; D 3.704 ppm + F 0.000 ppm,50%
same,Mortality (%) 6 H,Ctenocephalides felis; D 11.111 ppm + F 0.000 ppm,10%
same,Mortality (%) 24 H,Ctenocephalides felis; D 11.111 ppm + F 0.000 ppm,30%
same,Mortality (%) 48 H,Ctenocephalides felis; D 11.111 ppm + F 0.000 ppm,60%
same,Mortality (%) 6 H,Ctenocephalides felis; D 33.333 ppm + F 0.000 ppm,0%
same,Mortality (%) 24 H,Ctenocephalides felis; D 33.333 ppm + F 0.000 ppm,10%
same,Mortality (%) 48 H,Ctenocephalides felis; D 33.333 ppm + F 0.000 ppm,80%
same,Mortality (%) 6 H,Ctenocephalides felis; D 100.000 ppm + F 0.000 ppm,40%
same,Mortality (%) 24 H,Ctenocephalides felis; D 100.000 ppm + F 0.000 ppm,80%
same,Mortality (%) 48 H,Ctenocephalides felis; D 100.000 ppm + F 0.000 ppm,90%
same,EC50 (ppm) Dinotefuran,"Ctenocephalides felis; Table 2, fleas, alone or in the combination",8.05 ppm
same,EC50 (ppm) Total amount of actives (ppm),"Ctenocephalides felis; Table 2, fleas",8.05 ppm
same,EC50 (ppm) Dinotefuran,"Ctenocephalides felis; Table 3 (head EC50, text says EC90), fleas",50.87 ppm
same,acaricidal activity against ticks (in words),Rhipicephalus sanguineus,not active
same,Mortality (%) 12 H,"Rhipicephalus sanguineus; D 0.412 ppm + F 0.000 ppm, 12 H",0%
same,Mortality (%) 24 H,"Rhipicephalus sanguineus; D 0.412 ppm + F 0.000 ppm, 24 H",0%
same,Mortality (%) 48 H,"Rhipicephalus sanguineus; D 0.412 ppm + F 0.000 ppm, 48 H",0%
same,Mortality (%) 12 H,"Rhipicephalus sanguineus; D 1.235 ppm + F 0.000 ppm, 12 H",0%
same,Mortality (%) 24 H,"Rhipicephalus sanguineus; D 1.235 ppm + F 0.000 ppm, 24 H",0%
same,Mortality (%) 48 H,"Rhipicephalus sanguineus; D 1.235 ppm + F 0.000 ppm, 48 H",0%
same,Mortality (%) 12 H,"Rhipicephalus sanguineus; D 3.704 ppm + F 0.000 ppm, 12 H",0%
same,Mortality (%) 24 H,"Rhipicephalus sanguineus; D 3.704 ppm + F 0.000 ppm, 24 H",0%
same,Mortality (%) 48 H,"Rhipicephalus sanguineus; D 3.704 ppm + F 0.000 ppm, 48 H",0%
same,Mortality (%) 12 H,"Rhipicephalus sanguineus; D 11.111 ppm + F 0.000 ppm, 12 H",0%
same,Mortality (%) 24 H,"Rhipicephalus sanguineus; D 11.111 ppm + F 0.000 ppm, 24 H",0%
same,Mortality (%) 48 H,"Rhipicephalus sanguineus; D 11.111 ppm + F 0.000 ppm, 48 H",0%
same,Mortality (%) 12 H,"Rhipicephalus sanguineus; D 33.333 ppm + F 0.000 ppm, 12 H",0%
same,Mortality (%) 24 H,"Rhipicephalus sanguineus; D 33.333 ppm + F 0.000 ppm, 24 H",0%
same,Mortality (%) 48 H,"Rhipicephalus sanguineus; D 33.333 ppm + F 0.000 ppm, 48 H",0%
same,Mortality (%) 12 H,"Rhipicephalus sanguineus; D 100.000 ppm + F 0.000 ppm, 12 H",0%
same,Mortality (%) 24 H,"Rhipicephalus sanguineus; D 100.000 ppm + F 0.000 ppm, 24 H",0%
same,Mortality (%) 48 H,"Rhipicephalus sanguineus; D 100.000 ppm + F 0.000 ppm, 48 H",0%
same,EC50 (ppm) Dinotefuran,"Rhipicephalus sanguineus; Table 5, ticks, amount of dinotefuran",>100 ppm
same,EC50 (ppm) Total amount of actives (ppm),"Rhipicephalus sanguineus; Table 5, ticks",100 ppm
"N#Cc1nn(-c2c(Cl)cc(C(F)(F)F)cc2Cl)c(N)c1[S+]([O-])C(F)(F)F (racemic) [D:F = 0:1, (RS)-5-amino-1-[2,6-dichloro-4-(trifluoromethyl)phenyl]-4-(trifluoromethylsulfinyl)-1H-pyrazole-3-carbonitrile]",EC50 (ppm) Fiproml,"Ctenocephalides felis; Table 2, fleas, amount of fipronil, alone or in the combination",13.83 ppm
same,EC50 (ppm) Total amount of actives (ppm),"Ctenocephalides felis; Table 2, fleas",13.83 ppm
same,mortality at 0.206 ppm,Rhipicephalus sanguineus; [1],0%
same,mortality at 0.206 ppm,Rhipicephalus sanguineus; [2],0%
same,mortality at 0.206 ppm,Rhipicephalus sanguineus; [3],0%
same,mortality at 0.617 ppm,Rhipicephalus sanguineus; [1],0%
same,mortality at 0.617 ppm,Rhipicephalus sanguineus; [2],0%
same,mortality at 0.617 ppm,Rhipicephalus sanguineus; [3],10%
same,mortality at 1.852 ppm,Rhipicephalus sanguineus; [1],0%
same,mortality at 1.852 ppm,Rhipicephalus sanguineus; [2],0%
same,mortality at 1.852 ppm,Rhipicephalus sanguineus; [3],0%
same,mortality at 5.556 ppm,Rhipicephalus sanguineus; [1],0%
same,mortality at 5.556 ppm,Rhipicephalus sanguineus; [2],20%
same,mortality at 5.556 ppm,Rhipicephalus sanguineus; [3],60%
same,mortality at 16.667 ppm,Rhipicephalus sanguineus; [1],60%
same,mortality at 16.667 ppm,Rhipicephalus sanguineus; [2],80%
same,mortality at 16.667 ppm,Rhipicephalus sanguineus; [3],100%
same,mortality at 50 ppm,Rhipicephalus sanguineus; [1],60%
same,mortality at 50 ppm,Rhipicephalus sanguineus; [2],100%
same,mortality at 50 ppm,Rhipicephalus sanguineus; [3],100%
same,EC50 (ppm) Fipronil,"Rhipicephalus sanguineus; Table 5, ticks, amount of fipronil",3.77 ppm
same,EC50 (ppm) Total amount of actives (ppm),"Rhipicephalus sanguineus; Table 5, ticks",3.77 ppm
